This note sets out measurements from patent US20050209451A1, “Crystalline form of cefdinir” (priority 2002, published 2005).

The structures appear in SMILES notation.

Data set [1] in a line: accelerated stability tests in comparison with crystal A. It is filed as physicochemical. The source says: Cefdinir in the new crystalline form was subjected to accelerated stability tests in comparison with crystal A claimed in U.S. Pat. No. 4,935,507.
A short description of data set [2]: dissolution tests in 0.07 N HCl. Particulars: after the first hour, compared with crystal A. Type of data set: physicochemical.

Turning to `C=CC1=C(C(=O)O)N2C(=O)[C@@H](NC(=O)/C(=N\O)c3csc(N)n3)[C@H]2SC1` [new crystal, cefdinir], the stability result is “at least equal to that of the reference crystal A” in data set [1] (compared with reference crystal A of U.S. Pat. No. 4,935,507) and “high stability” in data set [1] (compared with reference crystal A of U.S. Pat. No. 4,935,507, listed as product obtained in this manner). Further, the “solubility on prolonged dissolution treatment (final dissolved cefdinir value)” value in data set [2] (listed as cefdinir in the new crystalline form) is “more soluble than crystal A”; in data set [2] (listed as product obtained in this manner) it was “higher than that possible with crystal A”.
